Measured values taken from paper PMC7407272, “Induction of Lysosome Membrane Permeabilization as a Therapeutic Strategy to Target Pancreatic Cancer Stem Cells” (Cancers, 2020).

Tests used:
ACVR1 = target: T1, ACVR1 (Homo sapiens, UniProt Q04771); test: KINOMEscan; type: binding; conditions: read-out: % Ctrl
T1 construct: purchased DiscoveRx KINOMEscan

NEK1 = target: T2, NEK1 (Homo sapiens, UniProt Q96PY6); test: KINOMEscan; type: binding; conditions: read-out: % Ctrl
T2 construct: purchased DiscoveRx KINOMEscan

NEK9 = target: T3, NEK9 (Homo sapiens, UniProt Q8TD19); test: KINOMEscan; type: binding; conditions: read-out: % Ctrl
T3 construct: purchased DiscoveRx KINOMEscan

EGFR(E746-A750del) = target: T4, EGFR(E746-A750del) (Homo sapiens, UniProt P00533, DEL746-750); test: KINOMEscan; type: binding; conditions: read-out: % Ctrl
T4 construct: purchased DiscoveRx KINOMEscan

MEK2 = target: T5, MEK2 (Homo sapiens, UniProt P36507); test: KINOMEscan; type: binding; conditions: read-out: % Ctrl
T5 construct: purchased DiscoveRx KINOMEscan

EGFR(L747-T751del,Sins) = test: KINOMEscan; type: binding, human; conditions: 1 µM
DYRK2 = target: T6, DYRK2 (Homo sapiens, UniProt Q92630); test: KINOMEscan; type: binding; conditions: read-out: % Ctrl
T6 construct: purchased DiscoveRx KINOMEscan

ERK5 = target: T7, ERK5 (Homo sapiens, UniProt Q13164); test: KINOMEscan; type: binding; conditions: read-out: % Ctrl
T7 construct: purchased DiscoveRx KINOMEscan

re-plated PDAC2 spheres = test: Acridine orange lysosomal integrity assay; type: cell-based, human
Protocol: Cells were analyzed with a 4-laser Attune NxT Acoustic Cytometer (ThermoFisher Scientific). […] Autofluorescent cells were excited with blue laser 488nm and selected as the intersection with the filters 530/40 and 580/30 as previously described. For lysosomes quantification, Acridine Orange (AO) (A1301, Thermo Fisher Scientific, Waltham, MA, USA) or Lysotracker Deep Red (DR) (L12492, Molecular probes, Life Technologies, Waltham, MA, USA) were used. […] Bafilomycin A1 (100 nM, Calbiochem, San Diego, CA, USA) was included as a positive control for lysosome disruption. For Annexin V staining, floating and attached cells were pooled and resuspended in 1× AnnexinV staining buffer containing AnnexinV-APC diluted 1:20 (Biotium, Freemont, CA, USA) and incubated for 20 min at room temperature prior to flow cytometric analysis. For all assays, DAPI was used to mark and exclude dead cells, and data were analyzed using the software FlowJo v9.3 (Tree Star Inc., Ashland, OR, USA).
Re-plated spheres were loaded with 1 µg/mL acridine orange (A1301, Thermo Fisher Scientific) for 15 min then washed 3 times with PBS. […]

CAMK2B = target: T8, CAMK2B (Homo sapiens, UniProt Q13554); test: KINOMEscan; type: binding; conditions: read-out: % Ctrl
T8 construct: purchased DiscoveRx KINOMEscan

RET(V804M) = target: T9, RET(V804M) (Homo sapiens, UniProt P07949, V804M); test: KINOMEscan; type: binding; conditions: read-out: % Ctrl
T9 construct: purchased DiscoveRx KINOMEscan

PIK3CA(I800L) = target: T10, PIK3CA(I800L) (Homo sapiens, UniProt P42336, I800L); test: KINOMEscan; type: binding; conditions: read-out: % Ctrl
T10 construct: purchased DiscoveRx KINOMEscan

VRK2 = target: T11, VRK2 (Homo sapiens, UniProt Q86Y07); test: KINOMEscan; type: binding; conditions: read-out: % Ctrl
T11 construct: purchased DiscoveRx KINOMEscan

BIKE = target: T12, BIKE (Homo sapiens, UniProt Q9NSY1); test: KINOMEscan; type: binding; conditions: read-out: % Ctrl
T12 construct: purchased DiscoveRx KINOMEscan

BTK = target: T13, BTK (Homo sapiens, UniProt Q06187); test: KINOMEscan; type: binding; conditions: read-out: % Ctrl
T13 construct: purchased DiscoveRx KINOMEscan

BMPR2 = target: T14, BMPR2 (Homo sapiens, UniProt Q13873); test: KINOMEscan; type: binding; conditions: read-out: % Ctrl
T14 construct: purchased DiscoveRx KINOMEscan

CDK5 = target: T15, CDK5 (Homo sapiens, UniProt Q00535); test: KINOMEscan; type: binding; conditions: read-out: % Ctrl
T15 construct: purchased DiscoveRx KINOMEscan

DRAK2 = target: T16, DRAK2 (Homo sapiens, UniProt O94768); test: KINOMEscan; type: binding; conditions: read-out: % Ctrl
T16 construct: purchased DiscoveRx KINOMEscan

ABL1(F317I)-nonP = target: T17, ABL1(F317I)-nonP (Homo sapiens, UniProt P00519, F317I); test: KINOMEscan; type: binding; conditions: read-out: % Ctrl
T17 construct: purchased DiscoveRx KINOMEscan

CSNK1G1 = target: T18, CSNK1G1 (Homo sapiens, UniProt Q9HCP0); test: KINOMEscan; type: binding; conditions: read-out: % Ctrl
T18 construct: purchased DiscoveRx KINOMEscan

STK39 = target: T19, STK39 (Homo sapiens, UniProt Q9UEW8); test: KINOMEscan; type: binding; conditions: read-out: % Ctrl
T19 construct: purchased DiscoveRx KINOMEscan

TEC = target: T20, TEC (Homo sapiens, UniProt P42680); test: KINOMEscan; type: binding; conditions: read-out: % Ctrl
T20 construct: purchased DiscoveRx KINOMEscan

ASK2 = target: T21, ASK2 (Homo sapiens, UniProt O95382); test: KINOMEscan; type: binding; conditions: read-out: % Ctrl
T21 construct: purchased DiscoveRx KINOMEscan

KIT-autoi. = target: T22, KIT-autoi. (Homo sapiens, UniProt P10721); test: KINOMEscan; type: binding; conditions: read-out: % Ctrl
T22 construct: purchased DiscoveRx KINOMEscan

CDKL2 = target: T23, CDKL2 (Homo sapiens, UniProt Q92772); test: KINOMEscan; type: binding; conditions: read-out: % Ctrl
T23 construct: purchased DiscoveRx KINOMEscan

NIK = target: T24, NIK (Homo sapiens, UniProt Q99558); test: KINOMEscan; type: binding; conditions: read-out: % Ctrl
T24 construct: purchased DiscoveRx KINOMEscan

YANK3 = target: T25, YANK3 (Homo sapiens, UniProt Q86UX6); test: KINOMEscan; type: binding; conditions: read-out: % Ctrl
T25 construct: purchased DiscoveRx KINOMEscan

EPHA2 = target: T26, EPHA2 (Homo sapiens, UniProt P29317); test: KINOMEscan; type: binding; conditions: read-out: % Ctrl
T26 construct: purchased DiscoveRx KINOMEscan

S6K1 = target: T27, S6K1 (Homo sapiens, UniProt P23443); test: KINOMEscan; type: binding; conditions: read-out: % Ctrl
T27 construct: purchased DiscoveRx KINOMEscan

PKMYT1 = target: T28, PKMYT1 (Homo sapiens, UniProt Q99640); test: KINOMEscan; type: binding; conditions: read-out: % Ctrl
T28 construct: purchased DiscoveRx KINOMEscan

CAMK2G = target: T29, CAMK2G (Homo sapiens, UniProt Q13555); test: KINOMEscan; type: binding; conditions: read-out: % Ctrl
T29 construct: purchased DiscoveRx KINOMEscan

KIT(V559D) = target: T30, KIT(V559D) (Homo sapiens, UniProt P10721, V559D); test: KINOMEscan; type: binding; conditions: read-out: % Ctrl
T30 construct: purchased DiscoveRx KINOMEscan

AXL = target: T31, AXL (Homo sapiens, UniProt P30530); test: KINOMEscan; type: binding; conditions: read-out: % Ctrl
T31 construct: purchased DiscoveRx KINOMEscan

ERK3 = target: T32, ERK3 (Homo sapiens, UniProt Q16659); test: KINOMEscan; type: binding; conditions: read-out: % Ctrl
T32 construct: purchased DiscoveRx KINOMEscan

CSK = target: T33, CSK (Homo sapiens, UniProt P41240); test: KINOMEscan; type: binding; conditions: read-out: % Ctrl
T33 construct: purchased DiscoveRx KINOMEscan

FLT3(ITD,F691L) = test: KINOMEscan; type: binding, human; conditions: 1 µM
PRKCH = target: T34, PRKCH (Homo sapiens, UniProt P24723); test: KINOMEscan; type: binding; conditions: read-out: % Ctrl
T34 construct: purchased DiscoveRx KINOMEscan

T24 sequence (Q99558 whole entry): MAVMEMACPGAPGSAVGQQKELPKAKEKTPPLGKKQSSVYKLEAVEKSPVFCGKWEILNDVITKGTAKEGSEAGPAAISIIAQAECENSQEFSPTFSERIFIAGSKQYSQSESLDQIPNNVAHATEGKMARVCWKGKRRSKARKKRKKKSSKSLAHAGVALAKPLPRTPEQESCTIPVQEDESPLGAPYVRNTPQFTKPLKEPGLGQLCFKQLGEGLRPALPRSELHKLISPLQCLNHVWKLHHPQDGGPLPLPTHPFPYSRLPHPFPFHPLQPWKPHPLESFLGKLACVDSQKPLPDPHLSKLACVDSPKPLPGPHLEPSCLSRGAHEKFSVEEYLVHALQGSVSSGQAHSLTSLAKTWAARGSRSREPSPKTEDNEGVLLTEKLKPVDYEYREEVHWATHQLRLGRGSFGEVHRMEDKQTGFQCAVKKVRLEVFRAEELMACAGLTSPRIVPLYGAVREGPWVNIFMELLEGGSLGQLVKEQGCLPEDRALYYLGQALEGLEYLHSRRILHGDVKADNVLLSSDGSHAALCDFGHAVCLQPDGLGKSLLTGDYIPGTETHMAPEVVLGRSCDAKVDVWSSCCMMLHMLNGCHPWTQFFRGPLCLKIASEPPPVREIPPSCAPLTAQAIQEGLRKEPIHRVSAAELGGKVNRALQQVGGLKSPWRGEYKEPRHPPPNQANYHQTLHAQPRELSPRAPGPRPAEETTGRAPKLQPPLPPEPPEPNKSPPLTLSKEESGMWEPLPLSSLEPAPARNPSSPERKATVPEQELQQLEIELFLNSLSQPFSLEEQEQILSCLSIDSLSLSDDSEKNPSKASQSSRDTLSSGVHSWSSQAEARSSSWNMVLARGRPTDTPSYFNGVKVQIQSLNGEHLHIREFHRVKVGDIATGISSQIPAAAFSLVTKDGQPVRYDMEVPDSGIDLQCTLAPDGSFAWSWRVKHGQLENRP
T6 sequence (Q92630 whole entry): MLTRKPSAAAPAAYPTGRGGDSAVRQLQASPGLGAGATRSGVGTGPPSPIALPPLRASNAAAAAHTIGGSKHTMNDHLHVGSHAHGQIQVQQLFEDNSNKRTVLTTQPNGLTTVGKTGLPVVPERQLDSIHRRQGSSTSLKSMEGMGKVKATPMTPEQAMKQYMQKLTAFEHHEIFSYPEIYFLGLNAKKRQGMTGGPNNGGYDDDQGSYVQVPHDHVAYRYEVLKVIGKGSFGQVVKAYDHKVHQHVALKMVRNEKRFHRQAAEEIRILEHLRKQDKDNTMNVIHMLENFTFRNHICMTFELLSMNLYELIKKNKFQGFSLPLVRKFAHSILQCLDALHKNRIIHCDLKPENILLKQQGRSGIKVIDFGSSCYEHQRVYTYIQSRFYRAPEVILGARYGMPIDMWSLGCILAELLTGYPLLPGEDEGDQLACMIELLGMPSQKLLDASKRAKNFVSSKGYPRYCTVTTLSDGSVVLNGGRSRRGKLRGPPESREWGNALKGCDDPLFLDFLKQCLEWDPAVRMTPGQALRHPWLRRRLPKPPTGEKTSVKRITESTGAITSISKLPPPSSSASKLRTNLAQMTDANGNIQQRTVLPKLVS
T16 sequence (O94768 whole entry): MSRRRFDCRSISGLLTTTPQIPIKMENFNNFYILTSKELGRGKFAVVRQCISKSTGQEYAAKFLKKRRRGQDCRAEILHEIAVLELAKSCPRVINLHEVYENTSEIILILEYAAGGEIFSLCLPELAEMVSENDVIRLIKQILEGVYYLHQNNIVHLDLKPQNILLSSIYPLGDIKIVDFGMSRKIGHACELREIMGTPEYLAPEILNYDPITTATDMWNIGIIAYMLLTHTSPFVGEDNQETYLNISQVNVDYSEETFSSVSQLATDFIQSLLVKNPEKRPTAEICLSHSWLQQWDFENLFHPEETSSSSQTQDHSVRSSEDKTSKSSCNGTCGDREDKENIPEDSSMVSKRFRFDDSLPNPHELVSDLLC
T1 sequence (Q04771 21-509): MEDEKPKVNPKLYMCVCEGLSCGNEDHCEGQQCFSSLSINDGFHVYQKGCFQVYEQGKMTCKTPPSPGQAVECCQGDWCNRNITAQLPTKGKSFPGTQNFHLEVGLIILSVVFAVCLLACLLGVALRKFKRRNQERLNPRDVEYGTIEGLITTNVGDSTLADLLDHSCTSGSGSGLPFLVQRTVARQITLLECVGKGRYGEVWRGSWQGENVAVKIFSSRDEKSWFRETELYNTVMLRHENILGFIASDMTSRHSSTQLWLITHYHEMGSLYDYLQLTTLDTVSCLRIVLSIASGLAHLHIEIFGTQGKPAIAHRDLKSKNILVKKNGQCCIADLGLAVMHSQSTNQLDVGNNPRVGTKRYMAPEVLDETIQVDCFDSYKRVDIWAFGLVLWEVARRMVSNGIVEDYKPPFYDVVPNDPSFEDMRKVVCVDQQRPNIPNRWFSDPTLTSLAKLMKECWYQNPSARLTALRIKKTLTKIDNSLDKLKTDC
T21 sequence (O95382 whole entry): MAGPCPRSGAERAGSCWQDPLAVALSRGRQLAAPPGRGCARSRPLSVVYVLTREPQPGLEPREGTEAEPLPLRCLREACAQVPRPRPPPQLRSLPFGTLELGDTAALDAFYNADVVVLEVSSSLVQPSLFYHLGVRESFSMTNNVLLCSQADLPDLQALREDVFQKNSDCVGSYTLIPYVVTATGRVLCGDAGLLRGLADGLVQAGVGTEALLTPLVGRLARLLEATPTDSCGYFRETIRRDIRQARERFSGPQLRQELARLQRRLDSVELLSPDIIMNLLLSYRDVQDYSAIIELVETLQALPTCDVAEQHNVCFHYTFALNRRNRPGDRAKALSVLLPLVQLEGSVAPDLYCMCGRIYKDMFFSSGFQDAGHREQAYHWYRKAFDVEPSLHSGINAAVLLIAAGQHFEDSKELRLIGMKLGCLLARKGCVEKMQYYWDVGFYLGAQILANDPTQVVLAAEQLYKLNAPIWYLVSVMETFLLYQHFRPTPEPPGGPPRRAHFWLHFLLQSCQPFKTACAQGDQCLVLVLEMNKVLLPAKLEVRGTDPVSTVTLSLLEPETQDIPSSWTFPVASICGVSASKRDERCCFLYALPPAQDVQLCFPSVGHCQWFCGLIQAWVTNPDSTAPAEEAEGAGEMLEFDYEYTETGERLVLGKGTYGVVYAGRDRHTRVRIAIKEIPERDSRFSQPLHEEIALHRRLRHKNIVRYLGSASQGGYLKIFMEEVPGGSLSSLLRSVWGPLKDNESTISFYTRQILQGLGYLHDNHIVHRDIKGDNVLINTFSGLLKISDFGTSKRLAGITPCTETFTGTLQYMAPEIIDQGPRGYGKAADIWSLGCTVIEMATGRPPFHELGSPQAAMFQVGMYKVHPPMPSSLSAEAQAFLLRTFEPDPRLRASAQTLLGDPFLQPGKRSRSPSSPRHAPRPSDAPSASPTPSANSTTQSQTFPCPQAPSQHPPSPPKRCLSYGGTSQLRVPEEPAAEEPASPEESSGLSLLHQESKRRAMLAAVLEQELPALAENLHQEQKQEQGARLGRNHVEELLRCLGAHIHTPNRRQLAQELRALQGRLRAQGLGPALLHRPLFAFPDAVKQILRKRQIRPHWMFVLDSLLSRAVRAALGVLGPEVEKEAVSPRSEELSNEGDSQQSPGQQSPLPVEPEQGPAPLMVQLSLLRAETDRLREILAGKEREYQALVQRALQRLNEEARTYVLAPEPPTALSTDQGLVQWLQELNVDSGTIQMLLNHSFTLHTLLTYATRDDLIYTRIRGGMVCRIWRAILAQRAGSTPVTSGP
T5 sequence (P36507 whole entry): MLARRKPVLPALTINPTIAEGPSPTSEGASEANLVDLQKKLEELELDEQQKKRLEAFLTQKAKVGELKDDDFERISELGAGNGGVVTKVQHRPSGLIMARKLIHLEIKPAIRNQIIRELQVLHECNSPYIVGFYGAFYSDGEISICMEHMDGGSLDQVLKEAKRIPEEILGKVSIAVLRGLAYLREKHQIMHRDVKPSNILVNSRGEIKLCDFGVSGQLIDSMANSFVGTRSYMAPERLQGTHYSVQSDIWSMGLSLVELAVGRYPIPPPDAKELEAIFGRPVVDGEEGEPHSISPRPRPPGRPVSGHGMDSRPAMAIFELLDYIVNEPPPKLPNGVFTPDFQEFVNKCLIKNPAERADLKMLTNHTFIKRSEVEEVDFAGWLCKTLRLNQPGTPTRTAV
T22 sequence (P10721 26-976): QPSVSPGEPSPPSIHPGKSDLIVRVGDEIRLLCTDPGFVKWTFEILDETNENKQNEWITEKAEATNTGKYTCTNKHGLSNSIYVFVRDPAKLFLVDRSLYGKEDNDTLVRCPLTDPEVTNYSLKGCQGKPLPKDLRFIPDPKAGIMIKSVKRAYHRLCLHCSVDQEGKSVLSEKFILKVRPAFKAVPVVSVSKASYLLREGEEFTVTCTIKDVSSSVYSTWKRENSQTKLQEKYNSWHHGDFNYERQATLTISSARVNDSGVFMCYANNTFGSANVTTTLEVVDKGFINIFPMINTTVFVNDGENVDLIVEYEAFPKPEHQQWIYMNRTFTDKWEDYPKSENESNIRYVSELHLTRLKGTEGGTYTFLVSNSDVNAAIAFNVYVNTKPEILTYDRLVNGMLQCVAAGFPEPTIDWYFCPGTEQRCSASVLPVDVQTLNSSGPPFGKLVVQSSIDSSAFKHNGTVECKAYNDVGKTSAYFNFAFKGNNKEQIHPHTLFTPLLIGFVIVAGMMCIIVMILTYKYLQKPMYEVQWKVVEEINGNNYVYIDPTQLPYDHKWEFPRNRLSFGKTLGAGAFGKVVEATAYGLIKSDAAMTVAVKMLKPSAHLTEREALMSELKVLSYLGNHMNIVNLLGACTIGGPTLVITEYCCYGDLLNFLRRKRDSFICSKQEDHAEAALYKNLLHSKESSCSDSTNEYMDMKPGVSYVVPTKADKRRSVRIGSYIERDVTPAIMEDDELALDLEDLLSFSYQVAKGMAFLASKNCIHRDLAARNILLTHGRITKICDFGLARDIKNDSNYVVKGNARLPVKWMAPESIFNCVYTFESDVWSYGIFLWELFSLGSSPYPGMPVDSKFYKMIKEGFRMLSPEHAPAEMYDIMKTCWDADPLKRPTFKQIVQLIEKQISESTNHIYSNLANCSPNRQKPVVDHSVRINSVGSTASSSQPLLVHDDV

SMILES: CN1CCC(CNc2ccc3ncc(C(=O)Nc4cccc(OC(F)(F)F)c4)n3n2)CC1 [Cpd 2]
- remaining binding at 1 µM (ACVR1): 99%
- remaining binding at 1 µM (NEK1): 99%
- remaining binding at 1 µM (NEK9): 88%
- remaining binding at 1 µM (EGFR(E746-A750del)): 77%
- remaining binding at 1 µM (MEK2): 90%
- % Ctrl (EGFR(L747-T751del,Sins)): 87%
- remaining binding at 1 µM (DYRK2): 86%
- remaining binding at 1 µM (ERK5): 100%
- Acridine Orange staining (LMP), fluorescence microscopy (re-plated PDAC2 spheres; 5 µM, 2 h): greatly reduced lysosomal staining in the far-red channel
- AO mean far-red fluorescence intensity (MFI), flow cytometry (re-plated PDAC2 spheres; 1.25, 2.5 or 5 µM, 6 h and 24 h): decreasing overall AO mean far-red fluorescence intensity
- remaining binding at 1 µM (CAMK2B): 92%
- remaining binding at 1 µM (RET(V804M)): 97%
- remaining binding at 1 µM (PIK3CA(I800L)): 81%
- remaining binding at 1 µM (VRK2): 100%
- remaining binding at 1 µM (BIKE): 83%
- remaining binding at 1 µM (BTK): 100%
- remaining binding at 1 µM (BMPR2): 87%
- remaining binding at 1 µM (CDK5): 100%
- remaining binding at 1 µM (DRAK2): 80%
- remaining binding at 1 µM (ABL1(F317I)-nonP): 61%
- remaining binding at 1 µM (CSNK1G1): 99%
- remaining binding at 1 µM (STK39): 99%
- remaining binding at 1 µM (TEC): 96%
- remaining binding at 1 µM (ASK2): 99%
- remaining binding at 1 µM (KIT-autoi.): 100%
- remaining binding at 1 µM (CDKL2): 98%
- remaining binding at 1 µM (NIK): 100%
- remaining binding at 1 µM (YANK3): 99%
- remaining binding at 1 µM (EPHA2): 100%
- remaining binding at 1 µM (S6K1): 93%
- remaining binding at 1 µM (PKMYT1): 75%
- remaining binding at 1 µM (CAMK2G): 100%
- remaining binding at 1 µM (KIT(V559D)): 95%
- remaining binding at 1 µM (AXL): 65%
- remaining binding at 1 µM (ERK3): 100%
- remaining binding at 1 µM (CSK): 100%
- % Ctrl (FLT3(ITD,F691L)): 34%
- remaining binding at 1 µM (PRKCH): 99%
